Experiments:
VIM-1 = VIM-1 (Pseudomonas aeruginosa (strain ATCC 15692 / DSM 22644 / CIP 104116 / JCM 14847 / LMG 12228 / 1C / PRS 101 / PAO1), UniProt A0A0F7KYQ8); experiment: biochemical; details: CCF2-FA substrate, 2 hours at 25° C
How it was run: (§1)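 Class B activity is measured in the presence of compound by fluorescence with CCF2-FA after a 2-hour incubation at 25° C. IC50 is taken from a 4-parameter fit of semi-logarithmic dose-response data.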

[1] = system: P. aeruginosa expressing IMP-1, efflux+ (MB9798); type: cell-based, Pseudomonas aeruginosa; details: for P. aeruginosa expressing IMP-1, efflux+ (MB9798) MITC95: imipenem at 2 μg/mL, in the presence of a class A, C, D serine β-lactamase inhibitor closely related to relebactam; for Efflux ratio: ratio MITC95 PA_9798/MITC95 PA_9799
Description: (§2) The strain background is Pseudomonas aeruginosa PAO1.

[2] = system: Escherichia coli expressing NDM-1 (CLB30005, CLB30016); type: cell-based; details: with imipenem 1 μg/ml, 95% inhibition of bacterial growth; for Escherichia coli MITC95: NDM-1 (CLB30016)
How it was run: (§3)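 Clinical strains grown overnight on blood agar, then diluted 1:100 in 1.1× CAMHB and exposed to test compound with imipenem at 1 μg/ml. Incubation was 22–24 h at 35° C; growth was read by absorbance to find the compound concentration restoring imipenem susceptibility.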

[3] = system: Klebsiella pneumoniae expressing VIM-1 (IHMA599644); type: cell-based; details: with imipenem 1 μg/ml, 95% inhibition of bacterial growth; for Klebsiella pneumoniae MITC95: VIM-1 (IHMA599644)
How it was run: as §3

[4] = system: Serratia marcescens expressing IMP-1 (CL5741); type: cell-based; details: with imipenem 1 μg/ml, 95% inhibition of bacterial growth; for Serratia marcescens MITC95: IMP-1 (CL5741)
How it was run: as §3

[5] = system: P. aeruginosa expressing IMP-1, efflux− (MB9799); experiment: Efflux: concentration of MBL inhibitor which restores susceptibility to imipenem; type: cell-based, Pseudomonas aeruginosa; details: imipenem at 2 μg/mL, in the presence of a class A, C, D serine β-lactamase inhibitor closely related to relebactam
Description: as §2

NDM-1 = NDM-1 (Klebsiella pneumoniae, UniProt C7C422); experiment: biochemical; type: biochemical; details: CCF2-FA substrate, 2 hours at 25° C; read-out: NDM-1 IC50
How it was run: as §1

IMP-1 = IMP-1 (Serratia marcescens, UniProt P52699); experiment: biochemical; type: biochemical; details: CCF2-FA substrate, 2 hours at 25° C; read-out: IMP-1 IC50
How it was run: as §1

IMP-1, sequence (P52699 whole entry, looked up, species assumed): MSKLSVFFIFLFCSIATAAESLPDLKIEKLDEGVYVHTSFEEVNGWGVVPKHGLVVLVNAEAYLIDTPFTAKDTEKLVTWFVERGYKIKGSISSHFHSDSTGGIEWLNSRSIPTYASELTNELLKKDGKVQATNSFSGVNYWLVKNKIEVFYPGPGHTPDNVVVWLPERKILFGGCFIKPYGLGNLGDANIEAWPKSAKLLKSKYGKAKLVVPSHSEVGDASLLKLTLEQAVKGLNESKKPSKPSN
NDM-1, sequence (C7C422 whole entry, looked up, species assumed): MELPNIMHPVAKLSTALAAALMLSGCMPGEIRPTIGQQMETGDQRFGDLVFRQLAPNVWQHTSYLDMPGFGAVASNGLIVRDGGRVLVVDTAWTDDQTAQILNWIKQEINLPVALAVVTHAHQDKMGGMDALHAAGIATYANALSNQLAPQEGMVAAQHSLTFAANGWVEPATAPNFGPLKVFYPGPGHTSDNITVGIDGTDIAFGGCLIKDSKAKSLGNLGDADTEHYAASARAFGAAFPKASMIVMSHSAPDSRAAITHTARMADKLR

SMILES	IC50 (VIM-1)	P. aeruginosa expressing IMP-1, efflux+ (MB9798) MITC95 [1]	Efflux ratio [1]	Escherichia coli expressing NDM-1 (CLB30016) MITC95 [2]	Klebsiella pneumoniae expressing VIM-1 (IHMA599644) MITC95 [3]	Serratia marcescens expressing IMP-1 (CL5741) MITC95 [4]	P. aeruginosa expressing IMP-1, efflux− (MB9799) MITC95 [5]	IC50 (NDM-1)	IC50 (IMP-1)	Escherichia coli MITC95 [2]	Klebsiella pneumoniae MITC95 [3]	Serratia marcescens MITC95 [4]
Cn1ncc2cccc(-c3ccc(S(=O)(=O)C4CNC4)c(S(N)(=O)=O)c3-c3nnn[nH]3)c21.O=C(O)C(F)(F)F [Example 130, 3-((4-(1-methyl-1H-indazol-7-yl)-2-sulfamoyl-3-(1H-tetrazol-5-yl)phenyl)sulfonyl)azetidin-1-ium 2,2,2-trifluoroacetate]	248 pM	12.5 µM	4.00	1.563 µM	6.25 µM	6.25 µM	3.125 µM	230 pM	1690 pM	–	–	–
NCCS(=O)(=O)c1ccc(-c2cnc3cccnc3c2)c(-c2nnn[nH]2)c1S(N)(=O)=O.O=C(O)C(F)(F)F [Example 134, 2-((4-(1,5-naphthyridin-3-yl)-2-sulfamoyl-3-(1H-tetrazol-5-yl)phenyl)sulfonyl)ethanaminium 2,2,2-trifluoroacetate]	991 pM	25 µM	15.99	6.25 µM	6.25 µM	3.125 µM	1.563 µM	2660 pM	2470 pM	–	–	–
Nc1n[nH]c2cccc(-c3ccc(S(=O)(=O)C4CNC4)c(S(N)(=O)=O)c3-c3nnn[nH]3)c12 [Example 263, 3-(3-amino-1H-indazol-4-yl)-6-(azetidin-3-ylsulfonyl)-2-(1H-tetrazol-5-yl) benzenesulfonamide]	594 pM	6.25 µM	2.00	–	–	–	3.125 µM	431 pM	4590 pM	1.563 µM	6.25 µM	1.563 µM
NCCS(=O)(=O)c1ccc(-c2cccc(S(=O)(=O)NC3CC3)c2)c(-c2nnn[nH]2)c1S(N)(=O)=O.O=C(O)C(F)(F)F [Example 161, 2-((3′-(N-cyclopropylsulfamoyl)-3-sulfamoyl-2-(1H-tetrazol-5-yl)-[1,1′-biphenyl]-4-yl)sulfonyl)ethanaminium 2,2,2-trifluoroacetate]	3040 pM	50 µM	31.99	6.25 µM	12.5 µM	6.25 µM	1.563 µM	3470 pM	1690 pM	–	–	–
Cn1c(N)nc2c(-c3ccc(S(=O)(=O)CCCN)c(S(N)(=O)=O)c3-c3nn[nH]n3)cccc21 [Example 195, 3-(2-amino-1-methyl-1H-benzo[d]imidazol-4-yl)-6-(3-aminopropylsulfonyl)-2-(2H-tetrazol-5-yl)benzenesulfonamide]	155 pM	0.7813 µM	1.00	0.3906 µM	1.563 µM	0.7813 µM	0.7813 µM	260 pM	250 pM	–	–	–
NCCS(=O)(=O)c1ccc(-c2cccc3cc(C(N)=O)[nH]c23)c(-c2nn[nH]n2)c1S(N)(=O)=O [Example 323, 7-(4-((2-aminoethyl)sulfonyl)-3-sulfamoyl-2-(2H-tetrazol-5-yl)phenyl)-1H-indole-2-carboxamide]	214 pM	0.7813 µM	1.00	–	–	–	0.7813 µM	51.3 pM	146 pM	3.125 µM	1.563 µM	1.563 µM
